Reference: ChEMBL document CHEMBL5137086, “Discovery of 1-(Hetero)aryl-β-carboline Derivatives as IDO1/TDO Dual Inhibitors with Antidepressant Activity” (J Med Chem, 2022)
Activity calls are given as the source filed them. The rule behind the calls is not given here.

Legend:
[1] = target: Indoleamine 2,3-dioxygenase 1 (Homo sapiens, UniProt P14902); assay: Inhibition of IDO1 (unknown origin) assessed as reduction in kynurenine production using L-tryptophan as substrate at 50 uM incubated for 1 hr by absorbance based microplate reader analysis relative to control
Indoleamine 2,3-dioxygenase 1, sequence (P14902 whole entry, looked up): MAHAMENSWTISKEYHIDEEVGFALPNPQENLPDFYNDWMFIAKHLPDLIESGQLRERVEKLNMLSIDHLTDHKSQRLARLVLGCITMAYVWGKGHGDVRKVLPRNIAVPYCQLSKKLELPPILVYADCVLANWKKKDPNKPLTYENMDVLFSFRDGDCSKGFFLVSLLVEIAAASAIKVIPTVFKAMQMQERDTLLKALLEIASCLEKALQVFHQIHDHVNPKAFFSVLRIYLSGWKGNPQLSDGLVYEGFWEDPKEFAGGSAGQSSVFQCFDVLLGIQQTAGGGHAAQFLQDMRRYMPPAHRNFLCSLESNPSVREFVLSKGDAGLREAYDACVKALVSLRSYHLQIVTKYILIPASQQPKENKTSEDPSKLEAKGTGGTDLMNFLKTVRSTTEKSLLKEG

[2] = target: T1, Tryptophan 2,3-dioxygenase (Homo sapiens, UniProt P48775); assay: Inhibition of TDO (unknown origin) assessed as reduction in N-formylkynurenine formation using L-tryptophan as substrate at 50 uM incubated for 75 mins by UV absorbance based analysis relative to control
Target sequence in this assay (P48775 whole entry, looked up): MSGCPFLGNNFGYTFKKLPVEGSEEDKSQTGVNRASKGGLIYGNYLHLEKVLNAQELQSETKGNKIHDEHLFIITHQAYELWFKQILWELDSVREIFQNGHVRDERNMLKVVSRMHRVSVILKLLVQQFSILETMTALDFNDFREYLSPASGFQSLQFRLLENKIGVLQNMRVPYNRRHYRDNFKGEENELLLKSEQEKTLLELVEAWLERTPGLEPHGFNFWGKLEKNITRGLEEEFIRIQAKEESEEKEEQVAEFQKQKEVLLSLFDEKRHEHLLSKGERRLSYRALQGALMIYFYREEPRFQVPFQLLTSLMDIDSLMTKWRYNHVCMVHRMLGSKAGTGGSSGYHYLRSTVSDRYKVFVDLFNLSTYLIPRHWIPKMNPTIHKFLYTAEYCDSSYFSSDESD

[3] = target: T1, Tryptophan 2,3-dioxygenase; assay: Inhibition of TDO (unknown origin) assessed as reduction in N-formylkynurenine formation using L-tryptophan as substrate incubated for 75 mins by UV absorbance based analysis
Target sequence in this assay (P48775 whole entry): as the sequence (P48775 whole entry, looked up) above

BV-2 [4] = assay: Antiinflammatory activity in LPS stimulated mouse BV-2 cells assessed as decrease in IDO1 expression pretreated with compound for 1 hr followed by LPS stimulation and measured after 24 hrs; type: functional, cell-based; conditions: dose 0.25-2 µM, time 25.0 hrs, DDE = dose-dependent effect
BV-2 [5] = assay: Antiinflammatory activity in LPS stimulated mouse BV-2 cells assessed as reduction in COX2 expression at 0.5 to 2 uM pretreated with compound for 1 hr followed by LPS stimulation and measured after 24 hrs by qRT-PCR analysis; type: functional, cell-based; conditions: dose 0.5-2 µM, time 25.0 hrs
BV-2 [6] = assay: Antiinflammatory activity in LPS stimulated mouse BV-2 cells assessed as reduction in iNOS expression at 0.5 to 2 uM pretreated with compound for 1 hr followed by LPS stimulation and measured after 24 hrs by qRT-PCR analysis; type: functional, cell-based; conditions: dose 0.5-2 µM, time 25.0 hrs
BV-2 [7] = assay: Antiinflammatory activity in LPS stimulated mouse BV-2 cells assessed as reduction in TNF-alpha expression at 0.5 to 2 uM pretreated with compound for 1 hr followed by LPS stimulation and measured after 24 hrs by qRT-PCR analysis; type: functional, cell-based; conditions: dose 0.5-2 µM, time 25.0 hrs
BV-2 [8] = assay: Antiinflammatory activity in LPS stimulated mouse BV-2 cells assessed as reduction in IL-1beta expression at 0.5 to 2 uM pretreated with compound for 1 hr followed by LPS stimulation and measured after 24 hrs by qRT-PCR analysis; type: functional, cell-based; conditions: dose 0.5-2 µM, time 25.0 hrs
BV-2 [9] = assay: Antiinflammatory activity in LPS stimulated mouse BV-2 cells assessed as increase in IL-10 expression at 0.5 to 2 uM pretreated with compound for 1 hr followed by LPS stimulation and measured after 24 hrs by qRT-PCR analysis; type: functional, cell-based; conditions: dose 0.5-2 µM, time 25.0 hrs
[10] = Half life in C57BL/6J mouse at 20 mg/kg, iv measured up to 24 hrs by LC-MS/MS analysis; type: ADME, organism-based; conditions: in vivo
[11] = Half life in C57BL/6J mouse at 20 mg/kg, ip measured up to 24 hrs by LC-MS/MS analysis; type: ADME, organism-based; conditions: in vivo
[12] = Tmax in C57BL/6J mouse at 20 mg/kg, iv measured up to 24 hrs by LC-MS/MS analysis; type: ADME, organism-based; conditions: in vivo
[13] = AUC (0 to 24 hrs) in C57BL/6J mouse at 20 mg/kg, ip measured up to 24 hrs by LC-MS/MS analysis; type: ADME, organism-based; parameters: dose 20 mg/kg, time < 24 hrs, route ip; conditions: in vivo
[14] = MRT (0 to 24 hrs) in C57BL/6J mouse at 20 mg/kg, iv measured up to 24 hrs by LC-MS/MS analysis; type: ADME, organism-based; conditions: in vivo
[15] = MRT (0 to 24 hrs) in C57BL/6J mouse at 20 mg/kg, ip measured up to 24 hrs by LC-MS/MS analysis; type: ADME, organism-based; conditions: in vivo
[16] = MRT (0 to infinity) in C57BL/6J mouse at 20 mg/kg, iv measured up to 24 hrs by LC-MS/MS analysis; type: ADME, organism-based; conditions: in vivo
[17] = Volume of distribution at steady state in C57BL/6J mouse at 20 mg/kg, iv measured up to 24 hrs by LC-MS/MS analysis; type: ADME, organism-based; conditions: in vivo, read-out: Vdss
[18] = Apparent volume of distribution in C57BL/6J mouse at 20 mg/kg, […] measured up to 24 hrs by LC-MS/MS analysis; type: ADME, organism-based; conditions: in vivo, read-out: Vz
[19] = Bioavailability in C57BL/6J mouse at 20 mg/kg, […] measured up to 24 hrs by LC-MS/MS analysis; type: ADME, organism-based; conditions: in vivo
[20] = Acute toxicity in mouse assessed as pathological changes in liver at 10 to 20 mg/kg, ip administered once daily for 20 days by hematoxyin-eosin staining based analysis; type: organism-based; conditions: in vivo, 480 h, dose 10-20 mg/kg, time 20 day
[21] = Acute toxicity in mouse assessed as pathological changes in lung at 10 to 20 mg/kg, ip administered once daily for 20 days by hematoxyin-eosin staining based analysis; type: organism-based; conditions: in vivo, 480 h, dose 10-20 mg/kg, time 20 day
[22] = Acute toxicity in mouse assessed as pathological changes in kidney at 10 to 20 mg/kg, ip administered once daily for 20 days by hematoxyin-eosin staining based analysis; type: organism-based; conditions: in vivo, 480 h, dose 10-20 mg/kg, time 20 day
[23] = Acute toxicity in mouse assessed as change in body weight at 10 to 20 mg/kg, ip administered once daily and measured every day for 20 days; type: organism-based; conditions: in vivo, 480 h, dose 10-20 mg/kg, time 20 day
[24] = Acute toxicity in mouse assessed as pathological changes in liver at 30 mg/kg, ip administered once daily for 20 days by hematoxyin-eosin staining based analysis; type: organism-based; conditions: in vivo, 480 h, time 20 day
[25] = Acute toxicity in mouse assessed as reduction in body weight at 30 mg/kg, ip administered once daily and measured every day for 20 days; type: organism-based; conditions: in vivo, 480 h, time 20 day
Mus musculus [26] = assay: Antidepressant activity in LPS induced mouse model assessed as rescue of decrease in immobility time at 20 mg/kg, ip pretreated with compound administered once daily for 2 days followed by LPS injection by tail suspension test; type: functional, organism-based; conditions: time 2.0 day
Mus musculus [27] = assay: Antiinflammatory activity in LPS induced mouse assessed as reduction in TNF-alpha expression in hippocampus at 20 mg/kg, ip pretreated with compound administered once daily for 2 days followed by LPS injection by qPCR analysis; type: functional, organism-based; conditions: time 2.0 day
Mus musculus [28] = assay: Antiinflammatory activity in LPS induced mouse assessed as reduction in iNOS expression in hippocampus at 20 mg/kg, ip pretreated with compound administered once daily for 2 days followed by LPS injection by qPCR analysis; type: functional, organism-based; conditions: time 2.0 day
Mus musculus [29] = assay: Downregulation of IDO1 expression in hippocampus of LPS induced mouse at 20 mg/kg, ip pretreated with compound administered once daily for 2 days followed by LPS injection by Western blotting analysis; type: functional, organism-based; conditions: time 2.0 day
Mus musculus [30] = assay: Antiinflammatory activity in LPS induced mouse assessed as rescue of increase in IDO1 expression in activated microglia at 20 mg/kg, ip pretreated with compound administered once daily for 2 days followed by LPS injection by immunofluorescence analysis; type: functional, organism-based; conditions: time 2.0 day
Mus musculus [31] = assay: Downregulation of kynurenine level in brain of LPS induced mouse at 20 mg/kg, ip pretreated with compound administered once daily for 2 days followed by LPS injection by UHPLC-HRMS analysis; type: functional, organism-based; conditions: time 2.0 day
[32] = AUC (0 to infinity) in C57BL/6J mouse at 20 mg/kg, iv measured up to 24 hrs by LC-MS/MS analysis; type: ADME, organism-based; parameters: dose 20 mg/kg, time < 24 hrs, route iv; conditions: in vivo
[33] = AUC (0 to infinity) in C57BL/6J mouse at 20 mg/kg, ip measured up to 24 hrs by LC-MS/MS analysis; type: ADME, organism-based; parameters: dose 20 mg/kg, time < 24 hrs, route ip; conditions: in vivo

c1ccc2c(c1)[nH]c1c(-c3c[nH]cn3)nccc12 showed an inhibition [1] of 98%, an inhibition [2] of 92% and an IC50 [3] of 1150 nM. The Activity (BV-2 [4]) was “Dde”, the Activity (BV-2 [5]) was “Active” and the Activity (BV-2 [6]) was “Active”. For the same compound, the Activity (BV-2 [7]) was “Active”, the Activity (BV-2 [8]) was “Active” and the Activity (BV-2 [9]) was “Active”. The half-life [10] was 139 min, the half-life [11] was 46.2 min and the Tmax [12] was 15 min. It also gave an AUC(0-t) at 24 h [13] of 4490 ng·h/mL, an MRT last at 24 h [14] of 1.81 h and an MRT last at 24 h [15] of 1.03 h. For the same compound, the MRT inf [16] was 1.85 h, the Vd [17] was 4.35 L/kg and the Vd [18] was 7.84 L/kg. For the same compound, the bioavailability [19] was 52.5%, the Activity [20] was “Non-Toxic” and the Activity [21] was “Non-Toxic”. The Activity [22] was “Non-Toxic”, the Activity [23] was “Non-Toxic” and the Activity [24] was “Toxic”. The Activity [25] was “Toxic”, the Activity (Mus musculus [26]) was “Active” and the Activity (Mus musculus [27]) was “Active”. The Activity (Mus musculus [28]) was “Active”, the Activity (Mus musculus [29]) was “Active” and the Activity (Mus musculus [30]) was “Active”. The Activity (Mus musculus [31]) was “Active”, the AUC(0-inf) [32] was 8560 ng·h/mL and the AUC(0-inf) [33] was 4460 ng·h/mL.
